From patent publication EP0831877B1, “METABOLIC EFFECTS OF CERTAIN GLUTATHIONE ANALOGS” (TELIK, INC., priority 1995, dated 1996)

Assays:
[1] = in vitro half-life in human blood; type: in vitro ADME
[2] = system: HT-29 (human colon adenocarcinoma) cells; experiment: modified clonogenic assay, potentiation of chlorambucil cytotoxicity; type: cell-based; settings: for DMF (dose modification factor), Diethyl ester / DMF of DEE: chlorambucil, mean ±S.D. of 2-3 experiments; for DMF (dose modification factor), Diethyl ester: dose tested 12.5 µM; for DMF of DEE: diethyl ester
Procedure: HT-29 (human colon adenocarcinoma) cells were obtained from Dr. Roberto Ceriani (Cancer Research Fund of Contra Costa County, Walnut Creek, CA) and were used in log phase of growth unless otherwise specified. Chlorambucil (CMB) was obtained from Sigma (St. Louis, MO) and was dissolved in 100% ethanol. All GST inhibitors were dissolved in ethanol, DMSO, or water just prior to use. The same amount of solvent added to culture medium served as the vehicle control.
In a modified clonogenic assay for cytotoxicity, cells were suspended at 2 x 10^5 cells/ml in serum-free medium in the presence of vehicle or inhibitor. […] Cells were incubated for 2 hours, then varying doses of CMB were added. At the end of a second 2-hour incubation, cells were diluted to 7.5-10 x 10^3/ml in serum-containing medium and plated in quadruplicate at 200 µl/well in Microtest III microtiter plates.
Plates were incubated for 6 days and assayed by a modified methylene blue method. Briefly, cells were fixed with 1.25% glutaraldehyde in PBS then stained with 0.05% methylene blue in distilled water. Plates were washed several times in distilled water to remove unretained dye and retained dye was resolubilized in 0.03 N HCl. Plates were read at 650 nm in a Molecular Devices Vmax plate reader (Molecular Devices, Redwood City, CA). […] A dose modification factor (DMF), a measure of potentiation of cytotoxicity, was calculated for each inhibitor by dividing the IC50 value of CMB without inhibitor treatment by the IC50 value for CMB with inhibitor treatment.

[3] = in vitro half-life / metabolism in mouse blood; type: in vitro ADME
HT-29 cells = experiment: Cytosensor Microphysiometer acidification rates; type: cell-based, human; settings: 4 hours pretreatment, TER199 20 µM, ethacrynic acid 50 µM
Procedure: The metabolic effects related to toxicity of the compounds of the invention on HT-29 cells, were tested using a Cytosensor Microphysiometer made by Molecular Devices, Inc., Menlo Park, CA and described in McConnell, H.M. et al. Science (1992) 257:1906-1912 and by Wada, H.G. et al. AATEX (1992) 1:154-164. Changes in pH of the culture medium are measured as a function of cellular metabolism. Acidification rates of the small volume of liquid flowing over the cells correlate with the number of live cells in the reaction chamber; a reduction of acidification rate reflects reduced numbers of surviving cells. […] The medium was then replaced with serum-free low buffer capacity medium and Microphysiometer analysis was initiated.

HT4-1 tumors = experiment: potentiation of melphalan toxicity in vivo, implanted HT4-1 tumors; parameters: species or system Male scid mice; settings: for tumor volume as a percentage of control tumor volume: seven days, when control tumors reached 1500 mm^3
Procedure: Male scid mice were subcutaneously implanted with HT4-1 tumors from donor mice. HT4-1 is a subclone of HT-29, a human colon cancer. When tumors reached approximately 100 mm^3, the mice were randomized into six treatment groups and treated for seven days as follows: • 1. 5 mg/kg melphalan; • 2. 10 mg/kg ethacrynic acid; • 3. […] 5 mg/kg melphalan + 10 mg/kg ethacrynic acid; • 5.
The mice were monitored for weight changes and tumor volumes were determined by measurement with calipers. The tumor growth was monitored until the average tumor size reached 1500 mm^3 for all groups except melphalan with ethacrynic acid.
The results were computed in terms of the tumor volume in the drug treated mice as a percentage of control tumor volume (i.e., in the group administered vehicle alone). In group 1, administered melphalan alone, the tumors were approximately 75% of the volume of controls. […] For group 4 administered a combination of melphalan and ethacrynic acid, the volumes were approximately 35% of control. […] (The volume measurements were taken at the time control tumors reached 1500 mm^3.)

bone marrow GM-CFU [4] = settings: melphalan 10 mg/kg i.p. alone
GST M1a-1a = biological target: T1, GST M1a-1a (Homo sapiens, UniProt P09488); experiment: inhibition of GST isoenzyme M1a-1a (Ki); type: biochemical; settings: determined on unesterified form
T1 sequence (P09488 1-218): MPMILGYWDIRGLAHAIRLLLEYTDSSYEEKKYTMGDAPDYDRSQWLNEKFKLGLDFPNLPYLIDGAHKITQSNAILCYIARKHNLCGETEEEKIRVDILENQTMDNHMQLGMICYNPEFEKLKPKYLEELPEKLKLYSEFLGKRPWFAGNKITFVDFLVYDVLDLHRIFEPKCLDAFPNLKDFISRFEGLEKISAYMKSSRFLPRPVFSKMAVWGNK

Human GST P1-1 = Human GST P1-1 (Homo sapiens, UniProt P09211); experiment: inhibition of GST isoenzyme P1-1 (Ki); type: biochemical; settings: for Ki: determined on unesterified form
Human GST P1-1, sequence (P09211 2-210 limits assumed): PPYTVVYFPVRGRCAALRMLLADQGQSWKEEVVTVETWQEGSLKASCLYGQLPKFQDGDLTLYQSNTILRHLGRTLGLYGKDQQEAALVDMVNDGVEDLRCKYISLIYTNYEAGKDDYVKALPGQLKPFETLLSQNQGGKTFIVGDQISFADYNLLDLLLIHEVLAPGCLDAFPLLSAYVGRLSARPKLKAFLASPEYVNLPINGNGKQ

GST M2-2 = biological target: T2, GST M2-2 (Homo sapiens, UniProt P28161); experiment: inhibition of GST isoenzyme M2-2 (Ki); type: biochemical; settings: determined on unesterified form
T2 sequence (P28161 1-218): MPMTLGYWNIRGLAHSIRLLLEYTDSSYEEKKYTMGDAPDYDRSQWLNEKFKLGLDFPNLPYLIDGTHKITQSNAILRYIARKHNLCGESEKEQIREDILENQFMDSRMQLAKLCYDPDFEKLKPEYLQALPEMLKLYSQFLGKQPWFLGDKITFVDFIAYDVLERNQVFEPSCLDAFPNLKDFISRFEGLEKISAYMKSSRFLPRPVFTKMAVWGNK

GST A1-1 = biological target: T3, GST A1-1 (Homo sapiens, UniProt P08263); experiment: inhibition of GST isoenzyme A1-1 (Ki); type: biochemical; settings: determined on unesterified form
T3 sequence (P08263 1-222): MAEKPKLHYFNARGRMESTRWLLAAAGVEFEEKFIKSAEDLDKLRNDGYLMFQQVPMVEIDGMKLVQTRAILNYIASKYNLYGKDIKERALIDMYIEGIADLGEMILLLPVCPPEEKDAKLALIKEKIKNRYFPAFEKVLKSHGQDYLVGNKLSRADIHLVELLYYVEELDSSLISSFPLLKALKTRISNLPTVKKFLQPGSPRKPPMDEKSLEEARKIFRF

bone marrow GM-CFU [5] = experiment: stimulation of bone marrow GM-CFU after administration to mice; type: in vivo, B6D2F1 mice; settings: bone marrow harvested 24 hours after administering
Procedure: In an illustrative assay three B6D2F1 mice were treated with various doses of benzyl PG intraperitoneally.
Mice in the control group were injected with water or saline. Bone marrow cells were harvested 24 hours after drug treatment and added to alpha minimum essential medium (alpha MEM) supplemented with methylcellulose (0.8% w/v), fetal bovine serum (20% v/v), deionized BSA (1% w/v), Pokeweed mitogen-stimulated spleen-cell conditioned medium (PWM-SCCM)^1 (10% v/v) and gentamycin (50 Tg/ml). One ml aliquots were plated (four replicate plates) and incubated for seven days at 37 °C. […] Spleens were removed aseptically from four male B6D2F1 mice enforced through a 200 Tm wire mesh screen to obtain a single cell suspension. Ten ml of the suspension (2-4 X 10^7 cell/ml was added to 90 ml alpha-MEM supplemented with 1% deionized BSA, 50 Tg/ml gentamicin, 0.3% freshly reconstituted pokeweed antigen, 10 µM 2-mercaptoethanol. The mixture was incubated for 5 days at […] in a 5% CO2 atmosphere and the result-ing conditioned medium was centrifuged at 800g for ten minutes and filtered through a 0.22 Tm filter. Aliquots were kept frozen at […] until use.
Bone marrow was harvested 24 hours after administering the compounds and GM-CFU levels measured as described above.

CCNC(=O)C(N)CCC(=O)NC(CSCc1ccccc1)C(=O)N[C@@H](C(=O)NCC)c1ccccc1 (stereo partly drawn) [TER278, γE ethyl amide-C(Bz)-R-(-)-ϕG ethyl amide]
half-life, comparison of the three compounds [1]: approximately the same
DMF for chlorambucil toxicity ([2]; HT-29, 200 µM, single experiment): 1.0
ability to potentiate chlorambucil compared with TER199 ([2]; test system not stated): less able to potentiate chlorambucil
toxicity compared with TER199 ([2]; test system not stated): less toxic
half-life compared with TER199 [3]: longer half-lives than TER199

C=C(CC)C(=O)c1ccc(OCC(=O)O)c(Cl)c1Cl [ethacrynic acid, reference compound]
effect on acidification rates, compound alone (Figure 2) (HT-29 cells; no chlorambucil): Neither γE-C(Bz)-ϕG diethylester (TER199) nor ethacrynic acid alone had any appreciable effect
effect of pretreatment on acidification rates with chlorambucil (Figure 2) (HT-29 cells; then 100 µM chlorambucil): potentiated the effect of chlorambucil
time until average tumor size reached 1500 mm^3 (HT4-1 tumors; 5 mg/kg melphalan + 10 mg/kg ethacrynic acid, volume not reached): > 72 days
tumor volume as a percentage of control tumor volume (HT4-1 tumors; group 4: 5 mg/kg melphalan + 10 mg/kg ethacrynic acid): approximately 35%

N[C@@H](Cc1ccc(N(CCCl)CCCl)cc1)C(=O)O [melphalan, reference compound]
GM-CFU remaining (bone marrow GM-CFU [4]): 2%
tumor volume as a percentage of control tumor volume (HT4-1 tumors; group 1: 5 mg/kg melphalan alone): approximately 75%

CCCCCCSC[C@H](NC(=O)CC[C@H](N)C(=O)OCC)C(=O)NC(C(=O)OCC)c1ccccc1 (some centres unmarked) [γE-C(Hx)-ϕG diethyl ester, γE-C(Hx)-ϕG]
DMF (dose modification factor), Diethyl ester ([2]; HT-29): 1.27±0.02
DMF of DEE [2]: 1.272

γE-C(Bz) (S+)-fA [TER317]
Ki (GST M1a-1a): > 1000 µM
Ki (Human GST P1-1): > 1000 µM
Ki (GST M2-2): > 1000 µM
Ki (GST A1-1): > 1000 µM
effect on GM-CFU, analogs of TER199 (Figure 8) (bone marrow GM-CFU [5]): inactive

γE-C(naphthyl)-G [TER206]
Ki (GST M1a-1a): 0.01 µM
Ki (Human GST P1-1): 1.2 µM
Ki (GST M2-2): 1.5 µM
DMF (dose modification factor), Diethyl ester ([2]; HT-29): 1.21±0.01
DMF of DEE [2]: 1.213
Ki (GST A1-1): 4.2 µM
effect on GM-CFU, analogs of TER199 (Figure 8) (bone marrow GM-CFU [5]): inactive

γE-C(naphthyl)-G [TER211]
Rank order (Human GST P1-1; rank of Ki for Human GST P1-1): 3
